Measured values: BindingDB's records for PubMed 2841449 (Merck Sharp & Dohme Research Laboratories, 1988)

Tests used:
Beta-arrestin-1 = Beta-arrestin-1 (Oryctolagus cuniculus, UniProt Q95223)
[1] = target: Platelet-activating factor receptor (Homo sapiens, UniProt P25105)
Sequence of Platelet-activating factor receptor (P25105 whole entry): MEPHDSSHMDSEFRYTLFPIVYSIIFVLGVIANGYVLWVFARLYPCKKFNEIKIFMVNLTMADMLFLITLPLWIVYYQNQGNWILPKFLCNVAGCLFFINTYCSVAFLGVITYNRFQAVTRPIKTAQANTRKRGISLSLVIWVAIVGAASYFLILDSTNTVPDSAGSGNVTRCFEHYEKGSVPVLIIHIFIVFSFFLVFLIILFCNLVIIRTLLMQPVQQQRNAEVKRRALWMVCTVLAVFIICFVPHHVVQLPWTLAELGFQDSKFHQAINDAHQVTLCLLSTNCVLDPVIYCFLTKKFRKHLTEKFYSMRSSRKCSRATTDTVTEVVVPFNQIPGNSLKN

Sequence of Beta-arrestin-1 (Q95223 whole entry): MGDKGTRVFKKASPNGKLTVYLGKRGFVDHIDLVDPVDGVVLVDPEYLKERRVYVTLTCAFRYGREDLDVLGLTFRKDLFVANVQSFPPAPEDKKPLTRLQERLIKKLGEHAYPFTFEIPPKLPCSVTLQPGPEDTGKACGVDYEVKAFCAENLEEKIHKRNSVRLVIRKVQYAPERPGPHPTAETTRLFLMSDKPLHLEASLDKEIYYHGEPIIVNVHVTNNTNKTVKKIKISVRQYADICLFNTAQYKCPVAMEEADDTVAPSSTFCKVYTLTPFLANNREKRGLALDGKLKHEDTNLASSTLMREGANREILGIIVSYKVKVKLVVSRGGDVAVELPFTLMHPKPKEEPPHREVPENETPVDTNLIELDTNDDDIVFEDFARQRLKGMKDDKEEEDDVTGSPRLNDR

CCCOc1c(OC)cc([C@H]2CC[C@H](c3cc(OC)c(OC)c(OC)c3)O2)cc1S(C)(=O)=O [L-659,989, (-)]
Ki (Beta-arrestin-1): 0.51 nM
Ki [1]: 5.48 nM
